Here are results for one molecule from patent US12398157B2, “Energy-efficient solvent-free method for producing metal chelates” (TECHNISCHE UNIVERSITAT CLAUSTHAL, priority 2017, dated 2025).

The data set can be described thus: particle size distribution by laser light scattering. The format is physicochemical. The conditions noted are these: volumetric, product of working example 1. From the text:
The product is obtained in a particularly finely divided form with a narrow particle size distribution. The latter can, for example, be seen from the ratio of the D values, D99, D90, D50, (D10). The D value indicates the percentage of particles smaller than the diameter given as the respective D value. The percentage is given as index, i.e.: D90= . . . means “90% of the particles have a (volumetrically determined) diameter of less than . . . ”. The associated data are obtained by means of laser light scattering.
The particle size distribution of the zinc bisglycinate produced as described in working example 1 and shown in FIG. 2a was examined more closely by means of laser light scattering. The results are shown in graph form in FIG. 2c.

Consider `NCC(=O)[O-].NCC(=O)[O-].[Zn+2]` [zinc bisglycinate, bis(glycinato-N,O)zinc], for which the “D10 (10% of the particles have diameters of less than)” value is listed as 0.86 μm, the “D50 (50% of the particles have diameters of less than)” value is listed as 3.41 μm, the “D90 (90% of the particles have diameters of less than)” value is reported as 6.82 μm and the “D99 (99% of the particles have diameters of less than)” value was 10.00 μm.
